Measured values from publication PMC9090415, “Discovery of small molecule inhibitors of Plasmodium falciparum apicoplast DNA polymerase” (Journal of Enzyme Inhibition and Medicinal Chemistry, 2022).

Biological target: P. falciparum apicoplast DNA polymerase (Pf-apPOL) (Plasmodium falciparum, UniProt Q8ILY1)
Test: Fluorescence-based high-throughput DNA polymerase assay (molecular beacon), primary screen and dose-response
Type: biochemical
Conditions: for DNA Pol: unit not given, 90 min, 10 µM
Procedure: The HT assay employs a molecular beacon, a stem-loop DNA template with a Cy3 dye and the Black Hole Quencher on the 3′ and 5′ ends of the DNA, respectively. Pf-apPOL concentration is based on a calculated absorptivity of ε280 = 56750 M^−1 cm^−1. Reactions were carried out at 25 °C, using Corning 3575 […] (well-volume, 20 µL). Assays testing for compound inhibition composed of reaction buffer (pH 7.9 in 50 mM potassium acetate, 20 mM Tris-acetate and 10 mM magnesium acetate), Pf-apPOL (20 nM), DNA substrate (20 nM), dNTPs (6 µM), and compound (10 µM in DMSO). The DNA and nucleotide substrates (dNTPs) were at concentrations of 20 nM and 6 µM, respectively, in the assay. Pf-apPOL was incubated in the reaction buffer with dNTPs and the compound of interest (10 µM, in the assay) at 25 °C for 10 min. The DNA substrate was then added and the reaction was allowed to proceed for 90 min at 25 °C.
Each assay plate contained 16 negative controls (no Pf-apPOL, DMSO present) and 16 positive controls (Pf-apPOL present, no DMSO). The fluorescence of each well was determined using a BioTek Synergy Neo fluorescence plate reader using excitation and emission wavelengths of 555 and 570 nm, respectively.
In the above, Min is the average of fluorescence emission of the negative controls (substrate only), Max the average fluorescence emission from the positive controls (enzyme + substrate), and Test the emission from the assays in the presence of compounds (enzyme + compound + substrates). […] […] The IC50 of each compound was determined using Equation (2): (2) IC50= Vmax/(1+ (I/IC50)^n)
In the above, n measures cooperativity, with n > 1 indicating synergistic binding of more than a single molecule of the compound.
To identify apPOL inhibitors we utilised our previously developed high-throughput DNA polymerase assay. The HT assay is based on a molecular beacon DNA template that forms a stem-loop with a Cy3 dye and the Black Hole Quencher on the 3′ and 5′ ends of the DNA, respectively. DNA polymerase activity extends an annealed primer through the stem region, displacing the fluorophore from the quencher, thereby increasing its fluorescence (Figure 1(A)). The assay accurately recapitulates the kinetic behaviour of apPOL, as measured through more conventional low-throughput gel-based assays. The Z′ factor for the assay described here was 0.9 across all plates (data not shown).
Figure 1. High-throughput screening. (A) The fluorescent-based DNA polymerase assay used to screen the compound libraries. The DNA template strand is a hairpin loop with a primer annealed to the loop. The 3’ end of the primer is 11 bases away from the 6 bp duplex. Strand displacement activity of the DNA polymerase separates the Cy3 dye from the Black hole quencher leading to an increase in fluorescent signal. (B) The high-throughput assay workflow. The DNA polymerase is incubated with […] compound for 10 min prior to addition of the hairpin substrate. The reaction is quenched at 3 different time points and the fluorescent signal is measured and % inhibition is determined using the provided equation.

Chain of P. falciparum apicoplast DNA polymerase (Pf-apPOL) (Q8ILY1 entry or part of it): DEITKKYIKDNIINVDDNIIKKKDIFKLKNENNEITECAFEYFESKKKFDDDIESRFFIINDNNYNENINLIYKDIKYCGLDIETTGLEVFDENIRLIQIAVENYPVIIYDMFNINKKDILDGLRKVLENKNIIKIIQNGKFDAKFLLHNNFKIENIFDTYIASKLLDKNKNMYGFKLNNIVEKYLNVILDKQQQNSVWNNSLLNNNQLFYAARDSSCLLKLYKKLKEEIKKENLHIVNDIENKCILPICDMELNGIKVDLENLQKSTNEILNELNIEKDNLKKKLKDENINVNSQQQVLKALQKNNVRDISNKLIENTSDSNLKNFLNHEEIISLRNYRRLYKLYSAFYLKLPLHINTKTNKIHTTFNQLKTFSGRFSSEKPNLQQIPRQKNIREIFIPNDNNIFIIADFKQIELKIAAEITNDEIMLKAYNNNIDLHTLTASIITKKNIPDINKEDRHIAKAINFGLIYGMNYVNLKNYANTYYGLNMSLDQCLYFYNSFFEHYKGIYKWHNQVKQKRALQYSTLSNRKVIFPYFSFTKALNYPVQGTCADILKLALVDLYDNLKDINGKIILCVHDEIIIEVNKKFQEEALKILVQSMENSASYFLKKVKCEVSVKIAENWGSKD

## O=C1N/C(=N/c2ccccc2Cl)S/C1=C/c1ccc([N+](=O)[O-])o1 [KU0054524]
DRC-1, concentration 2.5
  % inhibition Apo pol 10': 7.564%
DRC-1, concentration 5
  % inhibition Apo pol 10': 28.3365%
DRC-1, concentration 10
  % inhibition Apo pol 10': 42.7276%
DRC-1, concentration 20
  % inhibition Apo pol 10': 56.2802%
DRC-1, concentration 40
  % inhibition Apo pol 10': 80.0033%
DRC-1, concentration 80
  % inhibition Apo pol 10': 85.9961%
DRC-1, 90', concentration 2.5
  % inhibition Apol 90': 2.857%
DRC-1, 90', concentration 5
  % inhibition Apol 90': 16.2843%
DRC-1, 90', concentration 10
  % inhibition Apol 90': 26.4398%
DRC-1, 90', concentration 20
  % inhibition Apol 90': 38.2807%
DRC-1, 90', concentration 40
  % inhibition Apol 90': 70.6237%
DRC-1, 90', concentration 80
  % inhibition Apol 90': 84.7542%
DRC-1, 180', concentration 2.5
  % inhibition apPOL 180': -2.619%
DRC-1, 180', concentration 5
  % inhibition apPOL 180': 9.438%
DRC-1, 180', concentration 10
  % inhibition apPOL 180': 15.4402%
DRC-1, 180', concentration 20
  % inhibition apPOL 180': 23.638%
DRC-1, 180', concentration 40
  % inhibition apPOL 180': 57.9424%
DRC-1, 180', concentration 80
  % inhibition apPOL 180': 81.189%
DRC-2, 5', concentration 10 (unit not given)
  % inhibition Apo pol 5': 42%
DRC-2, 40', concentration 40 (unit not given)
  % inhibition Apol 40': 58%
DRC-2, 90', concentration 10 (unit not given)
  % inhibition ApPOL 90': 42%
DRC-2, 180', concentration 10 (unit not given)
  % inhibition apPOL 180': 31%
DRC-2, 180', concentration 20 (unit not given)
  % inhibition apPOL 180': 58%
DRC-2, 5', concentration 2.5
  % inhibition Apo pol 5': 17%
DRC-2, 5', concentration 5
  % inhibition Apo pol 5': 22%
DRC-2, 5', concentration 10
  % inhibition Apo pol 5': 42%
DRC-2, 5', concentration 20
  % inhibition Apo pol 5': 46%
DRC-2, 5', concentration 40
  % inhibition Apo pol 5': 25%
DRC-2, 5', concentration 80
  % inhibition Apo pol 5': 31%
DRC-2, 5', concentration 80 (unit not given)
  % inhibition Apo pol 5': 31%
DRC-2, 40', concentration 2.5
  % inhibition Apol 40': 14%
DRC-2, 40', concentration 5
  % inhibition Apol 40': 21%
DRC-2, 40', concentration 10
  % inhibition Apol 40': 45%
DRC-2, 40', concentration 20
  % inhibition Apol 40': 62%
DRC-2, 40', concentration 40
  % inhibition Apol 40': 58%
DRC-2, 40', concentration 80
  % inhibition Apol 40': 61%
DRC-2, 90', concentration 2.5
  % inhibition ApPOL 90': 11%
DRC-2, 90', concentration 5
  % inhibition ApPOL 90': 16%
DRC-2, 90', concentration 10
  % inhibition ApPOL 90': 42%
DRC-2, 90', concentration 20
  % inhibition ApPOL 90': 63%
DRC-2, 90', concentration 40
  % inhibition ApPOL 90': 65%
DRC-2, 90', concentration 80
  % inhibition ApPOL 90': 68%
DRC-2, 180', concentration 2.5
  % inhibition apPOL 180': 7%
DRC-2, 180', concentration 5
  % inhibition apPOL 180': 8%
DRC-2, 180', concentration 10
  % inhibition apPOL 180': 31%
DRC-2, 180', concentration 20
  % inhibition apPOL 180': 58%
DRC-2, 180', concentration 40
  % inhibition apPOL 180': 67%
DRC-2, 180', concentration 80
  % inhibition apPOL 180': 73%
Primary screen value of the 186 hits
  DNA Pol: 44
Primary screen value, head "DNA Pol"
  DNA Pol: 44

## COc1ccc(S(=O)(=O)/N=C2\NC(=O)/C(=C3\C(=O)Nc4ccc([N+](=O)[O-])cc43)S2)cc1 [KU0054985]
'DNA Pol' of the 186 hits list (primary screen result)
  DNA Pol: 41
DRC-1, concentration 2.5
  % inhibition Apo pol 10': 18.5864%
DRC-1, concentration 5
  % inhibition Apo pol 10': 36.9179%
DRC-1, concentration 10
  % inhibition Apo pol 10': 67.7559%
DRC-1, concentration 20
  % inhibition Apo pol 10': 96.4602%
DRC-1, concentration 40
  % inhibition Apo pol 10': 99.5336%
DRC-1, concentration 80
  % inhibition Apo pol 10': 99.5405%
DRC-1, 90', concentration 2.5
  % inhibition Apol 90': 1.843%
DRC-1, 90', concentration 5
  % inhibition Apol 90': 6.911%
DRC-1, 90', concentration 10
  % inhibition Apol 90': 25.9736%
DRC-1, 90', concentration 20
  % inhibition Apol 90': 66.8469%
DRC-1, 90', concentration 40
  % inhibition Apol 90': 95.4915%
DRC-1, 90', concentration 80
  % inhibition Apol 90': 99.0869%
DRC-1, 180', concentration 2.5
  % inhibition apPOL 180': -5.136%
DRC-1, 180', concentration 5
  % inhibition apPOL 180': -1.681%
DRC-1, 180', concentration 10
  % inhibition apPOL 180': 15.3394%
DRC-1, 180', concentration 20
  % inhibition apPOL 180': 51.5386%
DRC-1, 180', concentration 40
  % inhibition apPOL 180': 94.1836%
DRC-1, 180', concentration 80
  % inhibition apPOL 180': 99.3305%
DRC-2, 5', concentration 2.5
  % inhibition Apo pol 5': 4%
DRC-2, 5', concentration 5
  % inhibition Apo pol 5': 9%
DRC-2, 5', concentration 10
  % inhibition Apo pol 5': 30%
DRC-2, 5', concentration 20
  % inhibition Apo pol 5': 52%
DRC-2, 5', concentration 40
  % inhibition Apo pol 5': 63%
DRC-2, 5', concentration 80
  % inhibition Apo pol 5': 67%
DRC-2, 40', concentration 2.5
  % inhibition Apol 40': 3.68%
DRC-2, 40', concentration 5
  % inhibition Apol 40': 6%
DRC-2, 40', concentration 10
  % inhibition Apol 40': 20%
DRC-2, 40', concentration 20
  % inhibition Apol 40': 38%
DRC-2, 40', concentration 40
  % inhibition Apol 40': 74%
DRC-2, 40', concentration 80
  % inhibition Apol 40': 82%
DRC-2, 90', concentration 2.5
  % inhibition ApPOL 90': 3.52%
DRC-2, 90', concentration 5
  % inhibition ApPOL 90': 5%
DRC-2, 90', concentration 10
  % inhibition ApPOL 90': 18%
DRC-2, 90', concentration 20
  % inhibition ApPOL 90': 33%
DRC-2, 90', concentration 40
  % inhibition ApPOL 90': 75%
DRC-2, 90', concentration 80
  % inhibition ApPOL 90': 85%
DRC-2, 180', concentration 2.5
  % inhibition apPOL 180': 4.38%
DRC-2, 180', concentration 5
  % inhibition apPOL 180': 2.14%
DRC-2, 180', concentration 10
  % inhibition apPOL 180': 13%
DRC-2, 180', concentration 20
  % inhibition apPOL 180': 26%
DRC-2, 180', concentration 40
  % inhibition apPOL 180': 72%
DRC-2, 180', concentration 80
  % inhibition apPOL 180': 88%
Primary screen value of the library well
  DNA Pol: 41
